Experimental data as given in PMC6294263 (Stem Cell Reports, 2018).
pIC50: −log10 of the molar value.

Columns and labels:
[1] = test system: hiPSC-CMs (Cor.4U cardiomyocytes); experiment: calcium transient-based hiPSC-CM (CTCM) assay with cardiac hazard scoring; conditions: for arrhythmic (EAD-like) events: tested concentrations of Figure 5; for EAD-like events: control drugs at control concentration (E-4031 30 nM, dofetilide 3 nM, cetirizine 1 μM)
Description: Fluorescence imaging of intracellular calcium dynamics (i.e., calcium transients) enabled the evaluation of the spontaneous beating properties of hiPSC-CMs (Figure 2A) using the following parameters: (1) calcium transient duration at 90% of decay following the peak amplitude (CTD90), (2) beat rate (BR) representing the number of calcium transients (i.e., beats) per minute, and (3) amplitude (Amp), representing the difference between the minimum and the maximum (peak) calcium signal.
Effects on hiPSC-CMs were evaluated after a 30-min incubation period and normalized against the respective baseline recording, yielding a Δ% change in CTD90, BR, and Amp.
Cells were cultured with Cor.4U culture medium (Ax-M-HC250) in a humidified incubator at 37°C and 5% CO2, with medium being changed once a day. On the day of the experiment, the culture medium was replaced with Tyrode's solution (Sigma, No. T2397) supplemented with 10 mM HEPES together with KCl to represent isokalemic (4.2 mM K^+) conditions.
Briefly, Cal-520 was incubated for 45 min followed by a washout and a 30-min recovery before starting the experiments.
The spontaneous beating activity of hiPSC-CMs was assessed through measurement of the Ca^2+ fluorescence signal integrated over the whole well.
First, the experimental plates were put into the FDSS/μCell to stabilize for 10 min. Next, a baseline recording was run for 3 min followed by compound addition. The effect of a compound was recorded (5-min recording time) around 15 and 30 min after compound addition. CTD90, BR, and Amp were quantified for baseline and 30-min compound effects as the median value of all beats (calcium transients) measured within a 1-min interval of the recording. The recording around 15 min was used only for observation of EADs or fibrillation-like events. EADs were manually monitored and evaluated. Beat stop was defined after 30 min in case BR was <5 beats/min. Wells that temporarily stopped beating during compound addition but recovered at the 30-min time point were not defined as beat stop.
The responses were measured at baseline and at 30 min.

hERG = conditions: no reference given; read-out: half maximal inhibitory concentration [IC50] on hERG; cited from earlier work
[2] = 30-min incubation, reference drugs
[3] = reference drugs, tested concentrations of Figure 5 (selected to cover the therapeutic free Cmax), 30-min incubation
[4] = 3 nM (2-fold free Cmax), 30-min incubation, control drug over numerous studies
[5] = 0.1 μM, 30-min incubation, control drug over numerous studies, the rest in the high hazard zone
[6] = 5 μM (free Cmax), 30-min incubation, control drug over numerous studies

CC[C@H]1[C@@H]2C[C@H]3[C@@H]4N(C)c5ccccc5[C@]45C[C@@H]([C@H]2[C@H]5O)N3[C@@H]1O [Ajmaline]
arrhythmic (EAD-like) events ([1]; reference drugs): caused arrhythmic events

CCN(CC)CCCN(c1ccccc1)C1Cc2ccccc2C1 [Aprindine]
effect on CTD90 [1, 2]: CTD90 prolongation

CC(C)NCC(O)COc1ccc(CC(N)=O)cc1 (centres unmarked) [Atenolol]
cardiac hazard label [1, 3]: not identified for any potential hazard

COC(=O)C1=C(C)NC(C)=C([N+](=O)[O-])C1c1ccccc1C(F)(F)F (centres unmarked) [BAYK8644]
effect on amplitude (Amp) ([1]; 30-min incubation): increase the Amp
cardiac hazard label [1, 3]: high

C[N+](C)(C)CCOC(N)=O [Carbachol]
cardiac hazard label [1, 3]: not identified for any potential hazard

O=C(O)COCCN1CCN(C(c2ccccc2)c2ccc(Cl)cc2)CC1 (centres unmarked) [Cetirizine]
studies identified as no hazard ([1]; 1 μM (16-fold free Cmax), 30-min incubation, control drug over numerous studies): 99%
EAD-like events ([1]; 30-min incubation): not observed any EAD-like event

CN(C)CCCC1(c2ccc(F)cc2)OCc2cc(C#N)ccc21 (centres unmarked) [Citalopram]
cardiac hazard label [1, 3]: low

CC(CCc1ccc(O)cc1)NCCc1ccc(O)c(O)c1 (centres unmarked) [Dobutamine]
effect on beat rate (BR) [1, 2]: strong BR increase
cardiac hazard label [1, 3]: low or high

CN(CCOc1ccc(NS(C)(=O)=O)cc1)CCc1ccc(NS(C)(=O)=O)cc1 [Dofetilide]
studies identified as high hazard [1, 4]: 14%
studies identified as very high hazard [1, 4]: 80%
EAD-like events ([1]; 30-min incubation): provoked such EAD-like events

COc1ccc(C(=O)Nc2ccccc2CCC2CCCCN2C)cc1 (centres unmarked) [Encainide]
arrhythmic (EAD-like) events ([1]; reference drugs): caused arrhythmic events

CN(C)CCC[C@@]1(c2ccc(F)cc2)OCc2cc(C#N)ccc21 [Escitalopram]
cardiac hazard label ([1]; at 3- to 10-fold the free Cmax): high

O=C(Nc1ccc(Oc2ccccc2)cc1)c1cccc([N+](=O)[O-])c1 [ICA-105574]
effect on CTD90 [1, 2]: CTD90 shortening
cardiac hazard label [1, 3]: hazard identification

CC(C)NCC(O)c1ccc(O)c(O)c1 (centres unmarked) [Isoprenaline]
studies identified as low hazard [1, 5]: 70%
effect on amplitude (Amp) ([1]; 30-min incubation): increase the Amp
effect on beat rate (BR) [1, 2]: strong BR increase
cardiac hazard label [1, 3]: low or high

COc1cc2c(cc1OC)CC(=O)N(CCCN(C)C[C@H]1Cc3cc(OC)c(OC)cc31)CC2 [Ivabradine]
pIC50 (hERG): ~5.62

CC(C)(Oc1ccc(Cl)cc1)C(=O)NC1C2CC3CC1CC(NS(C)(=O)=O)(C3)C2 (centres unmarked) [JNJ-303]
cardiac hazard label [1, 3]: cannot be easily detected

CC1(C)Oc2ccc(C#N)cc2[C@@H](N2CCCC2=O)[C@@H]1O [Levcromakalim]
effect on CTD90 [1, 2]: CTD90 shortening
cardiac hazard label [1, 3]: potentially hazardous compounds

CC(=O)c1c(O)c(C)c(O)c(Cc2c(O)c3c(c(C(=O)/C=C/c4ccccc4)c2O)OC(C)(C)C=C3)c1O [Mallotoxin]
effect on CTD90 [1, 2]: CTD90 shortening
cardiac hazard label [1, 3]: hazard identification

Cc1cccc(C)c1OCC(C)N (centres unmarked) [Mexiletine]
cardiac hazard label [1, 3]: low or high

O=C(NCCO[N+](=O)[O-])c1cccnc1 [Nicorandil]
cardiac hazard label [1, 3]: not shown to have any potential hazard risk

COCCOC(=O)C1=C(C)NC(C)=C(C(=O)OC(C)C)C1c1cccc([N+](=O)[O-])c1 (centres unmarked) [Nimodipine]
studies identified as low hazard [1, 5]: 80%
effect on amplitude (Amp) ([1]; 30-min incubation): strongly decrease the Amp

Cc1cc2c(s1)Nc1ccccc1N=C2N1CCN(C)CC1 [Olanzapine]
cardiac hazard label ([1]; up to the highest tested concentration (100 nM), around the free Cmax): not identified with any hazard

C[C@@H]1O[C@@H](O[C@H]2C[C@@H](O)[C@]3(CO)[C@H]4[C@H](O)C[C@]5(C)[C@@H](C6=CC(=O)OC6)CC[C@]5(O)[C@@H]4CC[C@]3(O)C2)[C@H](O)[C@H](O)[C@H]1O [Ouabain]
cardiac hazard label [1, 3]: high

O=C1NC(=O)C(c2ccccc2)(c2ccccc2)N1 [Phenytoin]
studies identified as low hazard [1, 6]: 20%
studies identified as no hazard [1, 6]: 78%
incidence of beat stop (% of wells) ([1]; 5 μM, 30-min incubation): ≤ 50%
cardiac hazard label [1, 3]: low or high

CC(N/C(=N\C#N)Nc1ccncc1)C(C)(C)C (centres unmarked) [Pinacidil]
effect on CTD90 [1, 2]: CTD90 shortening
cardiac hazard label [1, 3]: potentially hazardous compounds

CCCNCC(O)COc1ccccc1C(=O)CCc1ccccc1 (centres unmarked) [Propafenone]
effect on CTD90 [1, 2]: CTD90 prolongation

CCC(=O)O[C@](Cc1ccccc1)(c1ccccc1)[C@H](C)CN(C)C [Propoxyphene]
effect on CTD90 [1, 2]: CTD90 prolongation

C=C[C@H]1C[N@@]2CC[C@H]1C[C@@H]2[C@@H](O)c1ccnc2ccc(OC)cc12 [Quinidine]
arrhythmic (EAD-like) events ([1]; reference drugs): caused arrhythmic events

O=C(c1ccc(OCCN2CCCCC2)cc1)c1c(-c2ccc(O)cc2)sc2cc(O)ccc12 [Raloxifene]
safety margin (tested concentration/free Cmax) at which a hazard was scored ([1]; 3–10 μM, negative control drug): ≥ 2500 fold the free Cmax
concentrations not scored as no hazard ([1]; negative control drug, exception to the no hazard scoring): 3000 to 10000 nM

CC(C)(C)NCC(O)c1ccc(O)c(CO)c1 (centres unmarked) [Salbutamol]
effect on beat rate (BR) [1, 2]: strong BR increase
cardiac hazard label [1, 3]: low or high

O=C1NCCN1CCN1CCC(c2cn(-c3ccc(F)cc3)c3ccc(Cl)cc23)CC1 [Sertindole]
safety margin (tested concentration/free Cmax) at which very high hazard (arrhythmic events) was scored [1]: approximately 625 fold the free Cmax
cardiac hazard label ([1]; 1 μM, 30-min incubation): very high

CCCCCNC(=N)N/N=C/c1c[nH]c2ccc(OC)cc12 [Tegaserod]
cardiac hazard label [1, 3]: high
